According to patent EP0943615A1, “1,4-DIHYDROPYRIDINE DERIVATIVES” (Nikken Chemicals Company, Limited, priority 1996, dated 1998):

system: VJ-300 cells; assay: In vitro test of action suppressing proliferation of cancer cells, combined administration of doxorubicin (colony formation), resistant cells; type: cell-based, Human; details: ADM alone or ADM + test compound 1 µg/ml, LD50 of ADM relative to ADM alone in KB cells = 1, 7 days incubation, colony count
Experimental: Human rhinopharynx cancer derived KB cells (i.e., sensitive cells) and their multi-drug resistant clone VJ-300 cells (i.e., resistant cells) were used as the test cells. As the incubation solutions, use was made of 10% fetal calf serum (Flow Laboratories) and Eagle MEM medium (Nissui Seiyaku) containing 0.292 mg/ml of L-glutamine (Flow Laboratories). The tests of the action for overcoming resistance to anti-cancer drugs or action for increasing the effect of the anti-cancer drug with the combined administration of the anti-cancer drug doxorubicin (i.e., adriamycin, ADM) and the test compound were performed as follows:
The test cells were suspended in incubation solutions and adjusted to a cell density of about 200 cells/ml. The cell suspensions were injected in 2 ml amounts into petri dishes and were incubated in a CO2 gas incubator (5% CO2, 95% air) at 37°C for 24 hours. Then, 5 µl of a predetermined concentration of the aqueous ADM solution and a predetermined concentration of a DMSO solution of the test compound were added, then the incubation was continued for a further 7 days. After the end of the incubation, the result was immobilized with methanol, Giemsa stained and measured for the number of colonies per dish. The results were used to prepare a volume-reaction curve. […] The results are shown in Table 8 to Table 10 using the concentration of LD50 of ADM in the ADM alone group by KB cells as the resistance degree 1 and calculating the resistances of the following LD50 concentrations as relative ratios. […]

With `COc1cccc2c1C(=O)c1c(O)c3c(c(O)c1C2=O)C[C@@](O)(C(=O)CO)C[C@@H]3O[C@H]1C[C@H](N)[C@H](O)[C@H](C)O1` [ADM, doxorubicin, reference compound] as the compound, how does the “Degree of resistance for ADM VJ-300” value read?
The value was 26 - 51.

How did the “Degree of resistance for ADM VJ-300” value turn out when `CCCCCC1C(C(=O)OCC=Cc2cccnc2)=C(C)NC(c2ccc(-n3c(C)nc4ncccc43)cc2)=C1C(=O)OCC` (stereo not shown) [Compound 4, 6-methyl-2-[4-(2-methylimidazo[4,5-b]pyridin-1-yl)phenyl]-4-pentyl-1,4-dihydropyridin-3,5-dicarboxylate 3-ethylester, 5-[3-(3-pyridyl)-2-propenyl]ester] was run?
The value was 1.2.

Which “Degree of resistance for ADM VJ-300” value does the source give for `CCCCCC1C(C(=O)OCCCN2CCN(C(c3ccccc3)c3ccccc3)CC2)=C(C)NC(c2ccc(-n3c(C)nc4ncccc43)cc2)=C1C(=O)OCC` (stereo not shown) [Compound 5, 6-methyl-2-[4-(2-methylimidazo[4,5-b]pyridin-1-yl)phenyl]-4-pentyl-1,4-dihydropyridin-3,5-dicarboxylate 3-ethylester, 5-[3-(4-benzhydrylpiperadin-1-yl)propyl]ester] here?
The value was 4.6.

Which “Degree of resistance for ADM VJ-300” value does the source give for `CCCCC1C(C(=O)OCCCc2cccnc2)=C(C)NC(c2ccc(-n3c(C)nc4cnccc43)cc2)=C1C(=O)OCC` (stereo not shown) [Compound 6, 4-butyl-6-methyl-2-[4-(2-methylimidazo[4,5-c]pyridin-1-yl)phenyl]-1,4-dihydropyridin-3,5-dicarboxylate 3-ethylester, 5-[3-(3-pyridyl)propyl]ester] here?
Its value is 2.8.

With `CCCCCC1C(C(=O)OCCCc2cccnc2)=C(C)NC(c2ccc(-n3c(C)nc4cnccc43)cc2)=C1C(=O)OCC` (stereo not shown) [Compound 7, 6-methyl-2-[4-(2-methylimidazo[4,5-c]pyridin-1-yl)phenyl]-4-pentyl-1,4-dihydropyridin-3,5-dicarboxylate 3-ethylester, -5-[3-(3-pyridyl)propyl]ester] as the compound, how does the “Degree of resistance for ADM VJ-300” value read?
Its value is 2.8.

How did the “Degree of resistance for ADM VJ-300” value turn out when `CCOC(=O)C1=C(c2ccc(-n3c(C)nc4cnccc43)cc2)NC(C)=C(C(=O)OCCCc2cccnc2)C1CC(C)(C)C` (stereo not shown) [Compound 8, 4-(2,2-dimethylpropyl)-6-methyl-2-[4-(2-methylimidazo[4,5-c]pyridin-1-yl)phenyl]-1,4-dihydropyridin-3,5-dicarboxylate 3-ethylester, 5-[3-(3-pyridyl)propyl]ester] was run?
The value was 1.3.

For `CCOC(=O)C1=C(c2ccc(-n3c(C)nc4cnccc43)cc2)NC(C)=C(C(=O)OCCCc2cccnc2)C1C1CCCCC1` (stereo not shown) [Compound 9, 4-cyclohexyl-6-methyl-2-[4-(2-methylimidazo[4,5-c]pyridin-1-yl)phenyl]-1,4-dihydropyridin-3,5-dicarboxylate 3-ethylester, 5-[3-(3-pyridyl)propyl]ester], which “Degree of resistance for ADM VJ-300” value is on record?
Its value is 2.9.

With `CCOC(=O)C1=C(c2ccc(-n3c(C)nc4cnccc43)cc2)NC(C)=C(C(=O)OCCCc2cccnc2)C1CC(C)C` (stereo not shown) [Compound 10, 6-methyl-2-[4-(2-methylimidazo[4,5-c]pyridin-1-yl)phenyl]-4-(2-methylpropyl)-1,4-dihdropyridin-3,5-dicarboxylate 3-ethylester, 5-[3-(3-pyridyl)propyl]ester] as the compound, how does the “Degree of resistance for ADM VJ-300” value read?
The value was 1.4.

With `CCOC(=O)C1=C(c2ccc(-n3c(C)nc4cnccc43)cc2)NC(C)=C(C(=O)OCCCc2cccnc2)C1C=C(C)C` (stereo not shown) [Compound 11, 6-methyl-2-[4-(2-methylimidazo[4,5-c]pyridin-1-yl)phenyl]-4-(2-methyl-1-propenyl)-1,4-dihydropyridin-3,5-dicarboxylate 3-ethylester, 5-[3-(3-pyridyl)propyl]ester] as the compound, how does the “Degree of resistance for ADM VJ-300” value read?
The value was 3.2.

How did the “Degree of resistance for ADM VJ-300” value turn out when `CCOC(=O)C1=C(c2ccc(-n3c(C)nc4cnccc43)cc2)NC(C)=C(C(=O)OCCCc2cccnc2)C1Cc1ccccc1` (stereo not shown) [Compound 12, 4-benzyl-6-methyl-2-[4-(2-methylimidazo[4,5-c]pyridin-1-yl)phenyl]-1,4-dihydropyridin-3,5-dicarboxylate 3-ethylester, 5-[3-(3-pyridyl)propyl]ester] was run?
The value was 6.5.

How did the “Degree of resistance for ADM VJ-300” value turn out when `CCOC(=O)C1=C(c2ccc(-n3c(C)nc4cnccc43)cc2)NC(C)=C(C(=O)OCCCc2cccnc2)C1CCc1ccccc1` (stereo not shown) [Compound 13, 6-methyl-2-[4-(2-methylimidazo[4,5-c]pyridin-1-yl)phenyl]-4-(2-phenylethyl)-1,4-dihydropyridin-3,5-dicarboxylate 3-ethylester, 5-[3-(3-pyridyl)propyl]ester] was run?
Its value is 2.6.

With `CCOC(=O)C1=C(c2ccc(-n3c(C)nc4cnccc43)cc2)NC(C)=C(C(=O)OCCCc2cccnc2)C1/C=C/c1ccccc1` (stereo not shown) [Compound 14, 6-methyl-2-[4-(2-methylimidazo[4,5-c]pyridin-1-yl)phenyl]-4-[(E)-2-phenylethenyl]-1,4-dihydropyridin-3,5-dicarboxylate 3-ethylester, 5-[3-(3-pyridyl)propyl]ester] as the compound, how does the “Degree of resistance for ADM VJ-300” value read?
The value was 1.3.

`CCCCCC1C(C(=O)OCCCCCc2cccnc2)=C(C)NC(c2ccc(-n3c(C)nc4cnccc43)cc2)=C1C(=O)OCC` (stereo not shown) [Compound 17, 6-methyl-2-[4-(2-methylimidazo[4,5-c]pyridin-1-yl)phenyl]-4-pentyl-1,4-dihydropyridin-3,5-dicarboxylate 3-ethylester, 5-[5-(3-pyridyl)pentyl]ester] was tested. Which “Degree of resistance for ADM VJ-300” value did it give?
The value was 1.6.

For `CCOC(=O)C1=C(c2ccc(-n3c(C)nc4cnccc43)cc2)NC(C)=C(C(=O)OCCCCCc2cccnc2)C1CCc1ccccc1` (stereo not shown) [Compound 18, 6-methyl-2-[4-(2-methylimidazo[4,5-c]pyridin-1-yl)phenyl]-4-(2-phenylethyl)-1,4-dihydropyridin-3,5-dicarboxylate 3-ethylester, 5-[5-(3-pyridyl)pentyl]ester], which “Degree of resistance for ADM VJ-300” value is on record?
Its value is 1.4.

Which “Degree of resistance for ADM VJ-300” value does the source give for `CCCCCC1C(C(=O)OC/C=C(/c2cccnc2)c2cccs2)=C(C)NC(c2ccc(-n3c(C)nc4cnccc43)cc2)=C1C(=O)OCC` (stereo not shown) [Compound 19, 6-methyl-2-[4-(2-methylimidazo[4,5-c]pyridin-1-yl)phenyl]-4-pentyl-1,4-dihydropyridin-3,5-dicarboxylate 3-ethylester, 5-[(Z)-3-(3-pyridyl)-3-(2-thienyl)-2-propenyl]ester] here?
The value was 1.2.

Which “Degree of resistance for ADM VJ-300” value does the source give for `CCOC(=O)C1=C(c2ccc(-n3c(C)nc4cnccc43)cc2)NC(C)=C(C(=O)OC/C=C(/c2cccnc2)c2cccs2)C1CCc1ccccc1` (stereo not shown) [Compound 20, 6-methyl-2-[4-(2-methylimidazo[4,5-c]pyridin-1-yl)phenyl]-4-(2-phenylethyl)-1,4-dihydropyridin-3,5-dicarboxylate 3-ethylester, 5-[(Z]-3-(3-pyridyl)-3-(2-thienyl)-2-propenyl]ester] here?
The value was 1.6.

`CCOC(=O)C1=C(c2ccc(-n3c(C)nc4cnccc43)cc2)NC(C)=C(C(=O)OCCCCCc2cccnc2)C1/C=C/c1ccccc1` (stereo not shown) [Compound 21, 6-methyl-2-[4-(2-methylimidazo[4,5-c]pyridin-1-yl)phenyl]-4-[(E)-2-phenylethenyl]-1,4-dihydropyridin-3,5-dicarboxylate 3-ethylester, 5-[5-(3-pyridyl)pentyl]ester] was tested. Which “Degree of resistance for ADM VJ-300” value did it give?
Its value is 1.1.

For `CCOC(=O)C1=C(c2ccc(-n3c(C)nc4ncccc43)cc2)NC(C)=C(C(=O)OC/C=C/c2cccnc2)C1/C=C/c1ccccc1Cl` (stereo not shown) [Compound 22, 4-[(E)-2-(2-chlorophenyl]ethenyl]-6-methyl-2-[4-(2-methylimidazo[4,5-b]pyridin-1-yl)phenyl]-1,4-dihydropyridin-3,5-dicarboxylate 3-ethylester, 5-[(E)-3-(3-pyridyl)-2-propenyl]ester], which “Degree of resistance for ADM VJ-300” value is on record?
The value was 1.7.

Which “Degree of resistance for ADM VJ-300” value does the source give for `CCOC(=O)C1=C(c2ccc(-n3c(C)nc4cnccc43)cc2)NC(C)=C(C(=O)OC/C=C/c2cccnc2)C1/C=C/c1ccccc1` (stereo not shown) [Compound 25, 6-methyl-2-[4-(2-methylimidazo[4,5-c]pyridin-1-yl)phenyl]-4-[(E)-2-phenylethenyl]-1,4-dihydropyridin-3,5-dicarboxylate 3-ethylester, 5-[(E)-3-(3-pyridyl)-2-propenyl]ester] here?
Its value is 1.1.

With `CCOC(=O)C1=C(c2ccc(-n3c(C)nc4cnccc43)cc2)NC(C)=C(C(=O)OC/C=C/c2cccnc2)C1CCc1ccsc1` (stereo not shown) [Compound 26, 6-methyl-2-[4-(2-methylimidazo[4,5-c]pyridin-1-yl)phenyl]-4-[2-(3-thienyl)ethyl)-1,4-dihydropyridin-3,5-dicarboxylate 3-ethylester, 5-[(E)-3-(3-pyridyl)-2-propenyl]ester] as the compound, how does the “Degree of resistance for ADM VJ-300” value read?
Its value is 1.8.

`CCOC(=O)C1=C(c2ccc(-n3c(C)nc4cnccc43)cc2)NC(C)=C(C(=O)OC/C=C/c2cccnc2)C1/C=C/c1ccoc1` (stereo not shown) [Compound 27, 4-[(E]-2-(3-furyl)ethenyl]-6-methyl-2-[4-(2-methylimidazo[4,5-c]pyridin-1-yl)phenyl]-1,4-dihydropyridin-3,5-dicarboxylate 3-ethylester, 5-[(E)-3-(3-pyridyl)-2-propenyl]ester] was tested. Which “Degree of resistance for ADM VJ-300” value did it give?
Its value is 8.7.

Which “Degree of resistance for ADM VJ-300” value does the source give for `CCOC(=O)C1=C(c2ccc(-n3c(C)nc4cnccc43)cc2)NC(C)=C(C(=O)OC/C=C/c2cccnc2)C1CCC1CCCCC1` (stereo not shown) [Compound 28, 4-(2-cyclohexylethyl)-6-methyl-2-[4-(2-methylimidazo[4,5-c]pyridin-1-yl)phenyl]-1,4-dihydropyridin-3,5-dicarboxylate 3-ethylester, 5-[(E)-3-(3-pyridyl)-2-propenyl]ester] here?
The value was 1.7.
